Results from ChEMBL document CHEMBL5291721, “A preclinical secondary pharmacology resource illuminates target-adverse drug reaction associations of marketed drugs” (Nat Commun, 2023).

Tests used:
[1] = biological target: T1, Alpha-1A adrenergic receptor (Homo sapiens, UniProt P35348); format: functional, cell-based
T1 sequence (P35348 whole entry): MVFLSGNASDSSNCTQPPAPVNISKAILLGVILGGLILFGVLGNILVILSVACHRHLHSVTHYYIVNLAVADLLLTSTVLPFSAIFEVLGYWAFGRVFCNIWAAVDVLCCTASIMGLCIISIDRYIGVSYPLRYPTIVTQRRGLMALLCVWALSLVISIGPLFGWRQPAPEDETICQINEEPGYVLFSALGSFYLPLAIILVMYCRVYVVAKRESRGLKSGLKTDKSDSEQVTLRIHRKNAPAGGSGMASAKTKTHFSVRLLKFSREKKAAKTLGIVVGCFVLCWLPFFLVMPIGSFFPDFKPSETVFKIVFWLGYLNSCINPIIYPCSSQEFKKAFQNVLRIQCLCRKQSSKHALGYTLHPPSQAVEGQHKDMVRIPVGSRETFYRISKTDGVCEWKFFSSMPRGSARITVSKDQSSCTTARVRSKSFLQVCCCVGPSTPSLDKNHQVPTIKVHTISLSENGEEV

[2] = biological target: T2, Gastrin/cholecystokinin type B receptor (Homo sapiens, UniProt P32239)
T2 sequence (P32239 whole entry): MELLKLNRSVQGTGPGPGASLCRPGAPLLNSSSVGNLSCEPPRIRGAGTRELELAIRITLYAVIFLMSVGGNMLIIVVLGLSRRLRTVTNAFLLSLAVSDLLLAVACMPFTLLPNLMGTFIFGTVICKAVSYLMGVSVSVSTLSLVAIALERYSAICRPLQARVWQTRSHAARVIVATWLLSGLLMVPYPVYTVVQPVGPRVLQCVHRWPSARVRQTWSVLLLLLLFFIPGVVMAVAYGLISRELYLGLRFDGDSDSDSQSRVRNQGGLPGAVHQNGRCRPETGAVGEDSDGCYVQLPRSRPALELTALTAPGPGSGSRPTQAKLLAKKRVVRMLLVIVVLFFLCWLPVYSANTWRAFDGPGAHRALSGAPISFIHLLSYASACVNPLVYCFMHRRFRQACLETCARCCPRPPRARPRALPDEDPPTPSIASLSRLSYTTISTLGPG

[3] = biological target: 5-hydroxytryptamine receptor 2A (Homo sapiens, UniProt P28223); format: functional, cell-based
Chain of 5-hydroxytryptamine receptor 2A (P28223 whole entry): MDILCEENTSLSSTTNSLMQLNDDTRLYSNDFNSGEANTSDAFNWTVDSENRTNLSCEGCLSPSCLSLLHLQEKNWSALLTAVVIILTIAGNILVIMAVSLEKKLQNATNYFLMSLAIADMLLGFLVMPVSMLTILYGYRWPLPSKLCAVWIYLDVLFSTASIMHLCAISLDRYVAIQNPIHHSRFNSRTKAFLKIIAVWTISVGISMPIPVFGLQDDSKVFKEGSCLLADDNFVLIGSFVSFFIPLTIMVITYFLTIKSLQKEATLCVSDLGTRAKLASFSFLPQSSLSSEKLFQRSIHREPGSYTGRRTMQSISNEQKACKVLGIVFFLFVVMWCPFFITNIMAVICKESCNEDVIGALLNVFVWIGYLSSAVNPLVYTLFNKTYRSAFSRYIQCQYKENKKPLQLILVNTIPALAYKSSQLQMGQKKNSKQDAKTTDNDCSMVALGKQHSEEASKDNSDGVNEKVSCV

[4] = biological target: T3, Prostaglandin G/H synthase 1 (Rattus norvegicus, UniProt Q63921); format: functional
T3 sequence (Q63921 whole entry): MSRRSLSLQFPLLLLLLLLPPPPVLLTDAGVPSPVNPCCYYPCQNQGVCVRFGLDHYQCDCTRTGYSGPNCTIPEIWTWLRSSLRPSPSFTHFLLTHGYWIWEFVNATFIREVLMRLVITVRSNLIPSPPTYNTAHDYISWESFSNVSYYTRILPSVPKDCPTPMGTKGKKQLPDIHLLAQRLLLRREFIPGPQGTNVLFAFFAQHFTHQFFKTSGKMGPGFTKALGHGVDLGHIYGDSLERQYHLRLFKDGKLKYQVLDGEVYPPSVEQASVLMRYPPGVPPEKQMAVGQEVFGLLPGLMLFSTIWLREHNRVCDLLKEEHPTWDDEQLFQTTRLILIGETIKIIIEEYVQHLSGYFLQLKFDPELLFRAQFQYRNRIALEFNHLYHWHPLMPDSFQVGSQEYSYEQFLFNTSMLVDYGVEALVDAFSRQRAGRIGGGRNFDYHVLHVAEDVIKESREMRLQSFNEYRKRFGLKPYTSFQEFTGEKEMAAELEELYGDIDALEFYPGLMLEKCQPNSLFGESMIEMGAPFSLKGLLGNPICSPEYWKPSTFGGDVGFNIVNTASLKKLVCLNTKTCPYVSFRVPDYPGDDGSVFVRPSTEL

Histamine H3 receptor = Histamine H3 receptor (Homo sapiens, UniProt Q9Y5N1)
Chain of Histamine H3 receptor (Q9Y5N1 whole entry): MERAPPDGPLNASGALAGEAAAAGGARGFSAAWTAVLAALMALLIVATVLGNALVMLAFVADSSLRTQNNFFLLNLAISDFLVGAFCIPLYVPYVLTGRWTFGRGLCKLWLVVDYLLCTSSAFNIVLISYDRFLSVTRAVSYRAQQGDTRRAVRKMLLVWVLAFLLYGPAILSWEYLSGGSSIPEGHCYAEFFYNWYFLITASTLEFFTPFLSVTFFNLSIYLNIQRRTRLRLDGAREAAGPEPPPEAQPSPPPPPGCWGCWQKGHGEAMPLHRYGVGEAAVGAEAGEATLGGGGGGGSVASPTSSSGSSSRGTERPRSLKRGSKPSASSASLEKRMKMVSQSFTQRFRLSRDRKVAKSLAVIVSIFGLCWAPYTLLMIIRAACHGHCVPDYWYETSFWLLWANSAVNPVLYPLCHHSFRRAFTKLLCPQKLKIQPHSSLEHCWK

Progesterone receptor = biological target: T4, Progesterone receptor (Homo sapiens, UniProt P06401); format: functional
T4 sequence (P06401 whole entry): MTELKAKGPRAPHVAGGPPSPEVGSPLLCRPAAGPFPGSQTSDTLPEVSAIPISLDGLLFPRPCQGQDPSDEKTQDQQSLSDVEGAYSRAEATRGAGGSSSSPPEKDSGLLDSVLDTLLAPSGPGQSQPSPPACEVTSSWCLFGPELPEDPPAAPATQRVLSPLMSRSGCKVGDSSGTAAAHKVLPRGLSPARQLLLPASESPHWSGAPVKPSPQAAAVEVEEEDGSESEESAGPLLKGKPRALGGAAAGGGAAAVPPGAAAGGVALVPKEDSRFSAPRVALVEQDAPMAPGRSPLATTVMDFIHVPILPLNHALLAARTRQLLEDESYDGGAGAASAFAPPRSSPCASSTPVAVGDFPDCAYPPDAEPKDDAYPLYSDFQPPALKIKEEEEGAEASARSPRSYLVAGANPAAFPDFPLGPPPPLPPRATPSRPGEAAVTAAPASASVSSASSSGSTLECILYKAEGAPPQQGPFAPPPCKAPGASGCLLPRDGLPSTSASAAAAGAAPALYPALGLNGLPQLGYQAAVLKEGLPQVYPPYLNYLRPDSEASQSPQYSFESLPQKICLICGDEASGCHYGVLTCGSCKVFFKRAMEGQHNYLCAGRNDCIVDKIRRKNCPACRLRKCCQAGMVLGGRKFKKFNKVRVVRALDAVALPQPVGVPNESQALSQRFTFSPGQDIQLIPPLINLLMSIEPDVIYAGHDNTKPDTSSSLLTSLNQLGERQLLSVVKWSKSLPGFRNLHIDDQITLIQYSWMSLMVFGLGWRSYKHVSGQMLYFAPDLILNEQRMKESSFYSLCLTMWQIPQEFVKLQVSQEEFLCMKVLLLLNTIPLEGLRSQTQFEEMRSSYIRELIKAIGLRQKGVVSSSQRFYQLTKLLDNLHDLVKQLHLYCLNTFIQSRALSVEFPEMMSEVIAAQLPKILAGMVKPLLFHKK
Further: assay procedure not described here.

SMILES | AC50 [1] | AC50 [2] | AC50 [3] | AC50 [4] | AC50 (Histamine H3 receptor) | AC50 (Progesterone receptor)
CN1CC(=O)N2[C@H](c3ccc4c(c3)OCO4)c3[nH]c4ccccc4c3C[C@@H]2C1=O | > 30 µM | > 30 µM | > 30 µM | > 30 µM | > 10 µM | –
COc1ccc2c(c1)c(CC(=O)OCC(=O)O)c(C)n2C(=O)c1ccc(Cl)cc1 [ACEMETACIN] | > 30 µM | > 10 µM | – | 30 µM | > 30 µM | > 30 µM
COc1ccc2cccc(CCNC(C)=O)c2c1 [AGOMELATINE] | > 30 µM | > 30 µM | – | > 30 µM | > 10 µM | –
CC(=O)OCC(=O)[C@@]12OC3(CCCC3)O[C@@H]1C[C@H]1[C@@H]3CCC4=CC(=O)C=C[C@]4(C)[C@@]3(F)[C@@H](O)C[C@@]12C [AMCINONIDE] | – | – | > 10 µM | > 10 µM | – | –
CC(C)c1c(C(=O)Nc2ccccc2)c(-c2ccccc2)c(-c2ccc(F)cc2)n1CC[C@@H](O)C[C@@H](O)CC(=O)O [ATORVASTATIN] | > 30 µM | > 30 µM | – | > 30 µM | > 10 µM | –
CN1C(=O)COc2c(C(=O)NC3CN4CCC3CC4)cc(Cl)cc21 (configuration not stated) [AZASETRON] | > 30 µM | > 30 µM | – | > 30 µM | > 30 µM | > 30 µM
Cc1cc2c(OCC(CNC(C)(C)C)OC(=O)c3ccccc3)cccc2[nH]1 (configuration not stated) [BOPINDOLOL] | > 30 µM | > 30 µM | – | 3.5 µM | > 30 µM | > 30 µM
CCCCN1CCCCC1C(=O)Nc1c(C)cccc1C (configuration not stated) [BUPIVACAINE] | – | > 30 µM | – | > 30 µM | > 30 µM | > 30 µM
CC(C)C(=O)OCC(=O)[C@@]12O[C@H](C3CCCCC3)O[C@@H]1C[C@H]1[C@@H]3CCC4=CC(=O)C=C[C@]4(C)[C@H]3[C@@H](O)C[C@@]12C [CICLESONIDE] | > 30 µM | – | > 10 µM | > 10 µM | – | –
CC(C)(Oc1ccc(C2CC2(Cl)Cl)cc1)C(=O)O (configuration not stated) [CIPROFIBRATE] | > 30 µM | > 30 µM | – | > 30 µM | > 30 µM | > 30 µM
[H]/N=C(/N)c1ccc(NCc2nc3cc(C(=O)N(CCC(=O)O)c4ccccn4)ccc3n2C)cc1 [DABIGATRAN] | > 30 µM | > 30 µM | – | > 30 µM | > 30 µM | > 30 µM
Cc1c(O)c(=O)ccn1C [DEFERIPRONE] | > 30 µM | > 30 µM | – | > 3 µM | > 30 µM | > 30 µM
CC(=O)O[C@@]12CO[C@@H]1C[C@H](O)[C@@]1(C)C(=O)[C@H](O)C3=C(C)[C@@H](OC(=O)[C@H](O)[C@@H](NC(=O)OC(C)(C)C)c4ccccc4)C[C@@](O)([C@@H](OC(=O)c4ccccc4)[C@H]21)C3(C)C [DOCETAXEL ANHYDROUS] | – | 19.2 µM | – | > 30 µM | > 30 µM | > 30 µM
CN[C@@H](C)[C@H](O)c1ccccc1 [EPHEDRINE] | 13 µM | > 30 µM | – | > 30 µM | > 10 µM | –
CCNC(C)Cc1cccc(C(F)(F)F)c1 (configuration not stated) [FENFLURAMINE] | – | > 30 µM | – | > 30 µM | > 10 µM | –
COc1c(N2CCNC(C)C2)c(F)cc2c(=O)c(C(=O)O)cn(C3CC3)c12 (configuration not stated) [GATIFLOXACIN] | – | – | – | > 10 µM | – | > 10 µM
CCN1CCC[C@H]1CNC(=O)c1cc(S(N)(=O)=O)ccc1OC [LEVOSULPIRIDE] | > 30 µM | > 30 µM | – | > 30 µM | > 10 µM | –
Cc1cccc(C)c1NC(=O)C1CCCCN1C (configuration not stated) [MEPIVACAINE] | > 30 µM | > 30 µM | – | > 30 µM | > 30 µM | > 30 µM
COc1ccccc1OCC(O)COC(N)=O (configuration not stated) [METHOCARBAMOL] | – | – | – | > 10 µM | – | > 30 µM
C[C@]12CCC(=O)C=C1CC[C@@H]1[C@@H]2CC[C@@]2(C)[C@H]1CC[C@]2(C)O [METHYLTESTOSTERONE] | > 30 µM | > 30 µM | – | > 30 µM | > 30 µM | –
NC(=O)C[S+]([O-])C(c1ccccc1)c1ccccc1 (configuration not stated) [MODAFINIL] | > 30 µM | > 30 µM | – | > 30 µM | > 10 µM | –
COc1c(C)c2c(c(O)c1C/C=C(\C)CCC(=O)OCCN1CCOCC1)C(=O)OC2 [MYCOPHENOLATE MOFETIL] | > 30 µM | > 30 µM | – | – | > 30 µM | > 30 µM
CCN(CC)CCOC(=O)c1ccc(N)cc1 [PROCAINE] | > 30 µM | > 30 µM | – | > 30 µM | 8.7 µM | –
CCCOc1ccc(C(=O)OCCN(CC)CC)cc1N [PROPARACAINE] | > 30 µM | > 30 µM | – | 0.75 µM | 1.3 µM | > 30 µM
Nc1nc2ccc(OC(F)(F)F)cc2s1 [RILUZOLE] | > 30 µM | > 30 µM | – | > 30 µM | > 30 µM | > 30 µM
C#CCN(C)[C@H](C)Cc1ccccc1 [SELEGILINE] | > 30 µM | – | – | > 10 µM | > 10 µM | > 10 µM
O=C1NCCN1CCN1CCC(c2cn(-c3ccc(F)cc3)c3ccc(Cl)cc23)CC1 [SERTINDOLE] | > 30 µM | > 30 µM | – | > 30 µM | > 30 µM | > 30 µM
Cc1c(C(=O)Nc2ccc(N3C[C@@H](C)O[C@@H](C)C3)nc2)cccc1-c1ccc(OC(F)(F)F)cc1 [SONIDEGIB] | – | > 30 µM | – | > 30 µM | > 10 µM | –
CN[C@@H]1[C@H](O)[C@H](NC)[C@H]2O[C@@]3(O)C(=O)C[C@@H](C)O[C@H]3O[C@@H]2[C@H]1O [SPECTINOMYCIN] | – | – | – | > 10 µM | > 10 µM | > 10 µM
CC[C@]1(O)C[C@@H]2CN(CCc3c([nH]c4ccccc34)[C@@](C(=O)OC)(c3cc4c(cc3OC)N(C)[C@H]3[C@@](O)(C(N)=O)[C@H](O)[C@]5(CC)C=CCN6CC[C@]43[C@@H]65)C2)C1 [VINDESINE] | > 30 µM | > 30 µM | – | 25 µM | > 30 µM | > 30 µM
